Data as given in patent US20130274235A1, “TREATMENT OF MOTOR NEURON DISEASE” (THE GENERAL HOSPITAL CORPORATION, priority 2010, published 2013).
Where “and” joins values, the source holds several entries; their conditions need not be identical. Equal entries are not always repeated. Entries after “also recorded” stand apart in the source; their conditions may differ. Structures can show the parent of a compound that is named as a salt. Where a SMILES comes first, the peptide text is derived from it.

Columns and labels:
IGF-II protein = IGF-II protein expression in primary spinal cord cultures, quantitated by ELISA; assay type: cell-based, mice
Description: Further results of the library screening identified the following therapeutic agents as having a significant inducing effect on IGF-II expression in primary spinal cord cultures and are useful for treating motor neuron disease. Protein expression was quantitated by ELISA.

IGF-II mRNA = assay: IGF-II expression assay, qPCR detection, in primary spinal cord cultures; assay type: cell-based, mice; settings: for induction of IGF-II expression (fold induction): NSAID series, FIGS. 3 and 4; for induction of IGF-II expression (in words): antihypertensive agents, FIGS. 5 and 6
Procedure: Quantitative PCR utilizing SYBR green I (Molecular Probes, Eugene, Oreg.) or specific Taqman probes was used to confirm differential gene expression. RNA extracted from 100-200 LCMed motor neurons were reverse transcribed using Superscript III (Invitrogen). 2 μl of diluted cDNA was amplified (DNA Engine Opticon real-time PCR machine, Bio-Rad), in […] reactions containing 900 nM primer and 250 nM probe in Taqman Universal Master Mix (Applied Biosystems). Reactions were run in duplicate and each gene analyzed in at least three different animals. Reaction parameters were as follows: 50° C. for 2 min, 95° C. for 10 min, and 40 cycles of 95° C. for 15 s and 60° C. for 1 min. Controls lacking template and/or Superscript were included. The absolute copy number for each gene was quantified using a standard curve from human GAPDH plasmid and amplified products were normalized against rat GAPDH expression. Primers and probes (Integrated DNA technologies) were as follows: rat GAPDH: Forward primer: […]
Two libraries of FDA-approved drugs (NINDS and Harvard LDDN) were screened for their ability to up-regulate IGF-II expression. Candidate compounds were screened in an IGF-II expression assay using a qPCR detection methodology in primary spinal cord cultures or using a luciferase reporter assay. In the initial screening, therapeutic candidates were identified as those that increased IGF-II expression by at least 2-fold. […]

[1] = test system: spinal motor neurons in primary culture; assay: Neuroprotection against glutamate-induced toxicity in primary spinal cord cultures; assay type: cell-based, rat; settings: 10-100 ng/ml, 2-4 h pretreatment; 20 μM glutamate + 100 μM PDC
Procedure: Time-pregnant Sprague Dawley wild-type rats were anesthetized, decapitated and E15.5 embryos collected, decapitated and spinal cords isolated in Hanks balanced salt solution (HBSS, Invitrogen). Dissections of spinal cords were done carefully to avoid the inclusion of somites or other external tissues. Cells were dissociated by gentle trituration and incubation with papain (Worthington Biochemical Corporation). Cells were cultured for 6 days in Neurobasal media (Invitrogen) containing 10% fetal bovine serum (FBS, Fisher scientific), 1×B27 supplement (Invitrogen), 500 μM glutamine (Invitrogen), […] mercaptoethanol (Invitrogen), Penicillin-Streptomycin (Invitrogen) or in DMEM/F12 (Invitrogen) containing 5% FBS, 1×N2 supplement A (Stem Cell Technologies), glucose (0.36%, Sigma), bovine serum albumin (0.25%, Invitrogen), Penicillin-Streptomycin (Invitrogen). Either culture media could maintain spinal cord cultures containing motor neurons. […]
For immunofluorescent staining, coverslips/sections were rinsed with phosphate buffered saline and incubated with blocking buffer (see above) for 1 h. […] The effect of glutamate, IGF-II and/or guanine deaminase on motor neuron survival was carefully evaluated, as was the co-localization of motor neuron markers.

[2] = test system: motor neurons in primary spinal cord cultures; assay: Low-level progressive glutamate excitotoxicity in primary spinal cord cultures; assay type: cell-based, mice; settings: drug pretreatment; glutamate/PDC treatments 48 hours apart; FIG. 8
Procedure: Primary spinal cord cultures from E12 pregnant mice were pre-treated for 72 hours with 1 μM, 2.5 μM, 5 μM, or 10 μM of a selected drug according to prior optimized dosing regimen. Drugs tested were identified during screening of qPCR. Subsequently, experimental cultures were grown in the presence of 0, 1.0 μM, 2.5 μM, or 10 μM drug for 24 hours prior to exposure to two glutamate (20 μM)/PDC (1 μM) or glutamate (50 μM)/PDC (10 μM) treatments 48 hours apart. Control samples (no glutamate/PDC treatment) were cultured for 24 hours in the presence of 10 μM drug administered 3 times to determine toxicity of treatment. All cultures were then fixed and stained with ChAT, Hoechst stain of the nuclei, and Islet1/2 antibody labels for the motorneuron columns. Results were analyzed using an In Cell Analyzer (GE Healthcare). Results were presented as percent of vehicle (DMSO) treated control cells.

| Molecule | Fold Increase in IGF-II Protein Expression (IGF-II protein) | IGF-II Protein Expression (pg/ml in media) (IGF-II protein) | Fold Increase in IGF-II mRNA Expression (IGF-II mRNA) | other results |
| --- | --- | --- | --- | --- |
| CC(C(=O)O)c1ccc(-c2ccccc2)c(F)c1 (centres unmarked) [Flurbiprofen] | 1.2 fold | (121 ± 27) pg/ml | 2.5 fold and 2.5 ± 0.5 fold | induction of IGF-II expression (fold induction) (IGF-II mRNA): 2.5±0.5 fold |
| IGF-II: recombinant IGF-II (R&D Systems), added exogenously to primary spinal cord cultures | – | – | – | protection of motor neurons from glutamate-induced toxicity [1]: blocked glutamate-induced motor neuron loss completely; also recorded: protected motor neurons against the toxicity; also recorded: protected motor neurons from glutamate-induced toxicity |
| CN1CCCC1c1cccnc1.O=C(O)C(O)C(O)C(=O)O.O=C(O)C(O)C(O)C(=O)O (centres unmarked) [Nicotine ditartrate] | 1.5 fold | (205 ± 26) pg/ml | 4.8 ± 0.3 fold | – |
| COC(=O)[C@H](Cc1ccccc1)NC(=O)[C@@H](N)CC(=O)O [Aspartame] (H-Asp-Phe-OMe) | 1.2 fold | (175 ± 1.7) pg/ml | 5.5 ± 0.7 fold | – |
| N=C(N)N/N=C/c1c(Cl)cccc1Cl [Guanabenz acetate] | – | – | 3.8 fold | induction of IGF-II expression (in words) (IGF-II mRNA): most active; protection of motor neurons against glutamate/PDC excitotoxic insult [2]: provided a level of protection |
| Cc1cc2nc3c(=O)[nH]c(=O)nc-3n(C[C@H](O)[C@H](O)[C@H](O)CO)c2cc1C [Riboflavin] | 1.5 fold | (205 ± 42) pg/ml | 4.1 ± 1.9 fold | – |
| O=C(O)Cc1ccccc1Nc1c(Cl)cccc1Cl [Diclofenac] | 1.1 fold | (112 ± 29) pg/ml | 4.0 ± 1.1 fold | induction of IGF-II expression (fold induction) (IGF-II mRNA): 3.4±1.3 fold |
| NC(=O)c1cccnc1 [Niacinamide] | 1.1 fold | (151 ± 45) pg/ml | 5.0 ± 3.6 fold | – |
| N[C@@H](Cc1ccc(O)c(O)c1)C(=O)O [Levodopa] | – | – | 3.5 fold | – |
| COCCCOc1cc(C[C@@H](C[C@H](N)[C@@H](O)C[C@H](C(=O)NCC(C)(C)C(N)=O)C(C)C)C(C)C)ccc1OC [aliskiren hemifumarate] | – | – | – | induction of IGF-II expression (in words) (IGF-II mRNA): most active |
| Cc1ncc(C[n+]2csc(CCO[P@](=O)(O)OP(=O)(O)O)c2C)c(N)n1 [Thiamine pyrophosphate] | 0.9 fold | (118 ± 42) pg/ml | 4.1 ± 2.1 fold | – |
| CCC(=O)NCC[C@@H]1CCc2ccc3c(c21)CCO3 [Ramelteon] | 1.5 fold | (201 ± 10) pg/ml | 3.4 ± 1.3 fold | – |
| NC(=O)C[S+]([O-])C(c1ccccc1)c1ccccc1 (centres unmarked) [Modafinil] | 1.4 fold | (213 ± 22) pg/ml | 4.4 ± 4.0 fold | – |
| CC(C)[C@H](N)C(=O)OCCOCn1cnc2c(=O)[nH]c(N)nc21 [Valacyclovir HCl] | 1.5 fold | (232 ± 4) pg/ml | 4.2 ± 1.8 fold | – |
| COC(=O)C1=C(C)NC(C)=C(C(=O)OC)C1c1ccccc1[N+](=O)[O-] [Nifedipine] | – | – | 6.6 ± 6.2 fold | – |
| CC(=O)OCC(=O)[C@@]1(O)[C@H](C)C[C@H]2[C@@H]3CCC4=CC(=O)C=C[C@]4(C)[C@@]3(F)[C@@H](O)C[C@@]21C [Dexamethasone acetate] | – | – | 3.8 fold | – |
| Cc1cc2c(s1)Nc1ccccc1N=C2N1CCN(C)CC1 [Olanzapine] | – | – | 4.0 fold | – |
| COc1ccc(Cl)cc1C(=O)NCCc1ccc(S(=O)(=O)NC(=O)NC2CCCCC2)cc1 [Glyburide] | – | – | 4.9 fold | – |
| Nc1nc(/C(=C/CC(=O)O)C(=O)N[C@@H]2C(=O)N3C(C(=O)O)=CCS[C@H]23)cs1 [Ceftibuten] | – | – | 3.9 ± 2.7 fold | – |
| CN(C)CCCC1(c2ccc(F)cc2)OCc2cc(C#N)ccc21 (centres unmarked) [Citalopram] | – | – | 3.4 fold | – |
| COc1ccccc1OCC(O)CO (centres unmarked) [Guaifenesin] | – | – | 2.9 fold | – |
| C[N+](C)(C)C[C@H](O)CC(=O)[O-] [Levocarnitine] | 1.7 fold | (258 ± 7) pg/ml | 5.7 ± 1.1 fold | – |
| COc1ccc([C@@H]2Sc3ccccc3N(CCN(C)C)C(=O)[C@@H]2OC(C)=O)cc1 [Diltiazem HCl] | – | – | 4.3 fold | induction of IGF-II expression (in words) (IGF-II mRNA): most active |
